The numbers were not newly measured in paper PMC10401651, “Characterization of Uranyl (UO2^2+) Ion Binding to Amyloid Beta (Aβ) Peptides: Effects on Aβ Structure and Aggregation” (ACS Chemical Neuroscience, 2023), which cites them from elsewhere.

For the series, the target named is T1, Aβ42 oligomers (Homo sapiens, UniProt P05067).
T1 construct: Synthetic lyophilized wt Aβ (1–42) peptides, abbreviated as Aβ42; purchased JPT Peptide Technologies (Germany); host or cells: synthetic peptide
Set-up: method as in PMID 36849796. The note with it: 0.05% SDS; cited from earlier work.

T1 sequence (P05067 672-713 limits assumed): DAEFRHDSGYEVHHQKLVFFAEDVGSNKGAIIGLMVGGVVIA

Take `[Ni+2]` [Ni(II) ions]: the “concentration required for full disruption of homogeneous AβO0.05%SDS oligomers” value is reported as 500 mM.
